Converted amounts (≈) assume the structure as drawn. Where a SMILES comes first, the peptide text is derived from it. [ ]: non-standard residue; d: D form. NMeL = CN[C@@H](CC(C)C)C(=O)O
Columns and labels:
[1] = system: Lung cancer cell line A549; assay type: cell-based, human; details: 48 h
Procedure: (§1) Lung cancer A549, drug-resistant lung cancer A549-DPP, human hepatocellular carcinoma HepG2 and hepatocellular carcinoma SMMC-7721 cells obtained from the China cell bank of the Institute of Biochemistry and were cultured in DMEM culture medium (DMEM, Corning, NY, USA) containing 10% fetal bovine serum (FBS, Hyclone, Logan, UT, USA), 1% penicillin-streptomycin and an antifungal agent in a 5% CO2 humidified atmosphere at 37 °C. The culture medium was replaced once in a day. Trypsin digestion method was adopted for cell propagation. Upon reaching 80%–90% confluence, the cells were rinsed twice with PBS. A certain amount of 0.25% trypsin digestion solution was then added and maintained for 3–5 min at 37 °C. Afterward, DMEM culture medium containing 10% fetal bovine serum was added to terminate the digestion. The cells were then blown well to form single cell suspensions.
(§2) The cell viability was determined by measuring the ability of cells to transform MTT (Genview, Houston, TX, USA) to a purple formazan dye. The cells were seeded in 96-well tissue culture plates at 2.5 × 10^3 cells/well for 24 h. The cells were then incubated with galaxamide and its analogues for 48 h. After incubation, 20 μL/well of MTT solution (5 mg/mL phosphate buffered saline) were added and incubated for 5 h. The medium was aspirated and replaced with 100 μL/well of DMSO to dissolve the formazan salt. The color intensity of the formazan solution, which reflects the cell growth condition, was measured at 570 nm using a microplate spectrophotometer (SpectroAma™ 250, Winooski, VT, USA).

[2] = system: drug-resistant lung cancer cell line A549/DPP; assay type: cell-based, human; details: 48 h
Procedure: as §1, §2

[3] = system: hepatocellular carcinoma SMMC-7721 cells; assay type: cell-based, human; details: for IC50 Value SMMC-7721: 48 h
Procedure: as §1, §2

[4] = system: human hepatocellular carcinoma HepG2; assay type: cell-based; details: 48 h
Procedure: as §1, §2

[5] = system: SMMC-7721 cells; test: Cell cycle analysis by PI staining and flow cytometry; assay type: cell-based, human; details: 4, 8 and 16 μg/mL, 48 h
Procedure: SMMC-7721 cells with the density of about 1.5 × 10^5 were incubated with galaxamide and representative analogues (4, 8, 16 μg/mL) for 48 h. Afterwards, collected cells were washed twice with PBS and centrifugation (1000 rpm, 5 min), then fixed using 70% ethanol for 12 h at 4 °C. Ethanol was removed by centrifugation (2000 rpm, 5 min), and the cells were washed twice with PBS. Cells were then resuspended in […] PI and kept at 37 °C for 15 min. The cell cycle was analyzed by flow cytometry measuring the amount of PI-labeled DNA in fixed cells.

[6] = system: SMMC-7721 cells; test: Cell apoptotic analysis, annexin V/PI staining, flow cytometry; assay type: cell-based, human; details: 4, 8 and 16 μg/mL, 48 h, annexin V/PI double staining
Procedure: The apoptotic cells were quantified using an Annexin V-FITC (Sigma-Aldrich, St. Louis, MO, USA) cell apoptosis assay kit according to instruction provided with kit. In brief, about 1.5 × 10^5 cells were plated in 6-well plates and treated with galaxamide and representative analogues (4, 8, 16 μg/mL) for 48 h. The cells were resuspended in […] binding buffer. Afterward, […] annexin V-fluorescein isothiocyanate (FITC) was added and then incubated in darkness at room temperature for 10 min. The cells were again resuspended in […] binding buffer and stained with […] PI. The prepared cells were then analyzed using a flow cytometry (Coulter Epics Elite, Miami, FL, USA). The cells in the FITC-positive and PI-negative fraction were regarded as apoptotic cells.

[7] = system: SMMC-7721 cells; test: Cell morphological observation, Hoechst33342 staining; assay type: cell-based, human; details: 4, 8 and 16 μg/mL, 48 h, fluorescence microscopy
Procedure: Exponentially growing SMMC-7721 cells (1 × 10^5 cells/mL) were incubated for 48 h with 4, 8, 16 μg/mL of galaxamide and representative analogues. Apoptotic nuclear morphology was visualized by the Hoechsst33342 staining technique. Cells were fixed with 3.7% of paraformaldehyde for 10 min at room temperature and washed three times with PBS. After fixation, cells were stained using Hoechsst33342 (10 μg/mL) and incubated in the darkness for 10 min. After washing three times with PBS, cells were visualized using fluorescence microscope.

[8] = ratio of IC50 values, MTT assay

| Compound | IC50 Value A549 [1] | IC50 Value A549-DPP [2] | IC50 Value SMMC-7721 [3] | IC50 Value HepG2 [4] | cell-cycle arrest (in words) [5] | induction of apoptosis (in words) [6] | morphological changes (in words) [7] | anti-tumor activity towards SMMC-7721, fold higher than galaxamide [3, 8] | anti-tumor activity towards SMMC-7721, fold higher than reference DPP (cisplatin) [3, 8] |
| --- | --- | --- | --- | --- | --- | --- | --- | --- | --- |
| CC(C)C[C@@H]1NC(=O)[C@H](CC(C)C)NC(=O)[C@@H](Cc2ccccc2)NC(=O)[C@H](CC(C)C)N(C)C(=O)[C@@H](CC(C)C)NC1=O [Compound 22, cyclo(D-Phe-Leu-Leu-D-Leu-N-Me-Leu)] | 9.4 µg/mL (≈ 15.3 µM) | 12.22 µg/mL (≈ 19.9 µM) | 1.44 µg/mL (≈ 2.35 µM) | 6.41 µg/mL (≈ 10.4 µM) | arresting the cell cycle in the G0/G1 phase | induced SMMC-7721 cell apoptosis in dose-dependent manner | resulted in cell detachment from cell culture plates | – | – |
| CC(C)C[C@@H]1NC(=O)[C@H](CC(C)C)N(C)C(=O)[C@H](CC(C)C)NC(=O)[C@H](CC(C)C)N(C)C(=O)[C@H](CC(C)C)NC1=O [Galaxamide, galaxamide] (cyclo(LL[NMeL]L[NMeL])) | – | – | – | – | arresting the cell cycle in the G0/G1 phase | – | resulted in cell detachment from cell culture plates | – | – |
| CC(C)C[C@H]1NC(=O)[C@@H](CC(C)C)NC(=O)[C@H](CC(C)C)N(C)C(=O)[C@@H](CC(C)C)NC(=O)[C@H](Cc2ccccc2)NC1=O [Compound 1, cyclo(Phe-D-Leu-N-Me-Leu-D-Leu-D-Leu)] | 8.74 µg/mL (≈ 14.2 µM) | 27.2 µg/mL (≈ 44.3 µM) | 1.25 µg/mL (≈ 2.04 µM) | 12.15 µg/mL (≈ 19.8 µM) | – | – | – | 9 fold | 10 fold |
| CC(C)C[C@@H]1NC(=O)[C@H](CC(C)C)N(C)C(=O)[C@H](CC(C)C)NC(=O)[C@@H](CC(C)C)N(C)C(=O)[C@@H](Cc2ccccc2)NC1=O [Compound 19, cyclo(D-Phe-D-N-Me-Leu-Leu-N-Me-Leu-Leu)] | 5.21 µg/mL (≈ 8.3 µM) | 17.73 µg/mL (≈ 28.2 µM) | 2.7 µg/mL (≈ 4.3 µM) | 4.25 µg/mL (≈ 6.77 µM) | – | – | – | – | – |
| CC(C)C[C@@H]1NC(=O)[C@H](Cc2ccccc2)NC(=O)[C@@H](CC(C)C)NC(=O)[C@@H](CC(C)C)NC(=O)[C@@H](CC(C)C)N(C)C1=O [Compound 3, cyclo(Phe-Leu-D-N-Me-Leu-D-Leu-D-Leu)] | 5.17 µg/mL (≈ 8.42 µM) | 11.41 µg/mL (≈ 18.6 µM) | 2.77 µg/mL (≈ 4.51 µM) | 18.82 µg/mL (≈ 30.7 µM) | – | – | – | – | – |
